From patent US11413301B2, “Composition comprising sea cucumber extract as effective ingredient for preventing and treating Bruch's membrane dysfunction-related disease” (priority 2016, dated 2022)

What was measured:
[1] = tested on: MMP enzyme secreted from a human Bruch's membrane; assay: MMP secretion from Bruch's membrane incubated with Frondoside A (zymography); conditions: Frondoside A 167 μg/mL, 30 hours
Protocol: Zymography was performed using the solution incubated for 30 hours in the measurement of hydraulic conductivity in Example 10. Specifically, a Bruch's membrane was incubated with a Tris buffer solution as a control or a Frondoside A solution (167 μg/mL) for 30 hours, 50 μL of the resulting solution was mixed with 50 μL of the SDS sample buffer, and then 30 μL of the resulting mixture was loaded on a gel to measure an MMP enzyme secreted from a human Bruch's membrane.

[2] = tested on: human Bruch's membrane; assay: Hydraulic conductivity of isolated Bruch's membrane (open-type Ussing chamber, fluid transport under hydrostatic pressure)
Protocol: First, to confirm the waste transport ability, the hydraulic conductivity of the Bruch's membrane isolated from a donated eye was measured. The isolated Bruch's membrane was mounted in an open-type Ussing chamber to measure a quantitative change in fluid under hydrostatic pressure and calculate a change in hydraulic conductivity (FIGS. 5B and 5C). […] The data of FIG. 5D is expressed using a semi-log plot with the logarithmic scale on the y-axis to convert exponential decay to a linear plot. To maintain the function of photoreceptor cells, the Bruch's membrane requires a minimal hydraulic conductivity function, which represents a failure line. […] All of the hydraulic conductivities measured for the peripheral regions of the 11 macular degeneration patients may be observed to be below the mean regression line (refer to the black circle and the red line in FIG. 5E), showing that, in the peripheral region, rather than the macular region, the decrease in the material transport function progresses to a serious condition. […]
In addition, to investigate the improvement of the transport function of the Bruch's membrane according to the dose of the sea cucumber extract, Bruch's membranes isolated from the eyes of four donors ranging from 69 to 84 years of age were measured, a dose response curve for the improvement of hydraulic conductivity was expressed. […]

[3] = tested on: lipids of Bruch's membrane; assay: Lipid removal from Bruch's membrane by Frondoside A (lipid extracted from membrane, TLC); parameters: species or system human; conditions: Frondoside A 167 μg/mL, membrane after hydraulic conductivity measurement
Protocol: To confirm the lipid removal effect of Frondoside A, after the measurement of hydraulic conductivity in Example 10, the Bruch's membrane was cut into a piece having a diameter of 6 mm, and then a lipid was extracted using a CM solution (chloroform:methanol=2:1), followed by evaporating the solvent. After 50 μL of a CM solution was added thereto again, 40 μL of the resulting solution was dropped on a silica gel TLC plate, and the type and amount of the lipid were analyzed.

## COC1C(O)C(CO)OC(OC2C(O)COC(OC3C(C)OC(OC4C(O[C@H]5CC[C@]6(C)C7CCC89C(=O)O[C@@](C)(CCCC(C)C)[C@H]8[C@@H](OC(C)=O)C[C@@]9(C)C7=CC[C@H]6C5(C)C)OCC(OS(=O)(=O)[O-])C4O)C(OC4OCC(O)C(O)C4O)C3O)C2O)C1O.[Na+] (stereo partly shown) [Frondoside A]
[1]
  secretion of Pro-MMP9 bound to the membrane: an enormous amount of Pro-MMP9 bound to the membrane was secreted
[2]; Frondoside A 167 μg/mL, control Tris buffer
  effect on the improvement of hydraulic conductivity relative to the control: ≥ 1.6 fold
[2]; Frondoside A 167 μg/ml
  hydraulic conductivity Fold-change Mean ± SD (n): 1.65 ± 0.2 (3) Fold-change
[3]
  removal of Ch from the Bruch's membrane: did not have an effect
  removal of ChE from the Bruch's membrane: did not have an effect
  removal of TG from the Bruch's membrane: did not have an effect
  removal of phosphatidylcholine from the Bruch's membrane: had an effect of removing phosphatidylcholine
